Measurements published in a melting point compilation (Tetko et al.; mined from patent text by program, amines drawn as free bases though some values may be those of a salt).

melting point [°C]	SMILES
120 to 122	COCCNS(=O)(=O)c1ccc(Nc2nc(OCC3CCCCC3)c3nc[nH]c3n2)cc1
136	CCOC(=O)C(NC(=O)c1cnc2cccc(C)n2c1=O)C(C)C (configuration not stated)
137 to 139	CC(C)=CCCC(C)C1CCC2C3CC=C4CC(O)CC(O)C4(C)C3CCC12C (configuration not stated)
198	CC(Oc1cc(-c2ccccc2)nc2ccccc12)C(=O)N1CCSCC1 (configuration not stated)
234 to 235	Cc1cc(CNC(=O)c2sc(-n3cnn(Cc4ccc(F)cc4)c3=O)nc2C)[nH]n1
184 to 186	CCCCNC(=NC#N)Nc1ccc(C2=NNC(=O)CC2C)cc1 (configuration not stated)
97	CS(=O)(=O)N1CCC(C=O)CC1
113 to 116	CCOC(=O)CN(CP(=O)(ONNc1ccccc1)ONNc1ccccc1)C(=O)C(F)(F)F
198 to 199	CC(=O)NC1(c2ccc(Cl)c(C(F)(F)F)c2)CCN(Cc2ccccc2)CC1
196	S=c1cc(-c2cnccn2)ss1
77 to 78	CC(C)(C)OC(=O)c1cc(Br)cc([N+](=O)[O-])c1
99 to 100	OC(CCCN1CCC(c2ncco2)CC1)c1ccc(F)cc1 (configuration not stated)
181 to 183	COC(=O)c1ccc(S(=O)(=O)N2CCC(Sc3cc(C(C)(C)C)c(O)c(C(C)(C)C)c3)CC2)n1C
47 to 49	COC(=O)CCC/C=C\CN1C(=O)c2ccccc2C1=O
156 to 157	Cc1ccc(-c2c(CNC(=O)OC(C)(C)C)[nH]c(=O)c3ccc(C#N)cc23)cc1
138 to 142	COc1ccc(C(=O)Nc2ccc(C)c(C)c2)cc1N
73 to 76	COC(=O)c1ccc(Cl)cc1OCC#N
207 to 208	COc1ccc(NC(=O)/C(C)=C/c2ccc(C(F)(F)F)cc2)c(C(=O)O)c1
74.5 to 76	CCN(CC)C(=O)c1ccc([N+](=O)[O-])c(C)c1
123 to 129	COC(=O)c1ccc(S(C)(=O)=O)c(C=NO)c1C
156 to 158	CN1CCN(C(=O)c2ccc(-c3ccc4nnn(Cc5ccc6ncccc6c5)c4n3)cc2)CC1
94 to 95	O=C(O)CCc1cnoc1-c1ccc(-c2ccccc2)cc1
256 to 257	CCCc1ccc(-c2nc(C)c(C(C)=NNC(=N)N)s2)cc1
99 to 103	CCOC(=O)C(C)(OC)C(=O)Nc1ccc(Br)cc1C (configuration not stated)

melting point [°C]	SMILES
> 270	CCn1c(=O)c2[nH]c(/C=C/c3cccc(C(F)(F)F)c3)nc2n(CC)c1=O
107 to 110	CCn1ncc2cc3c(nc21)C(Cl)c1ccccc1CC3 (configuration not stated)
140 to 141	N#Cc1c(N2CCCCC2)c(C(=O)OCCO)c2ccccn2c1=O
205	COc1cc(O)c(C=NNC(=O)c2cc3ccccc3s2)c(OC)c1
150 to 153	Cc1[nH]c2ccccc2c1C(=O)NC1CCN(Cc2ccccc2)CC1
139 to 143	CCOC(=O)C(C#N)=CNc1ncccc1C
226 to 228	NCc1ccccc1C1CCN(c2nc3c(cc2F)c(=O)c(C(=O)O)cn3C2CC2)C1 (configuration not stated)
99 to 102	Cc1cc(N2CCCC2)c2ccc(I)cc2n1
104 to 106	CC(C)NC(=O)c1nc(-c2cccc(F)c2)c(-c2ccc(=O)n(C(C)C)n2)s1
123 to 124	CCn1nc(-c2ccc(OC)c(F)c2)c(-c2ccc(OC)cc2)cc1=O
240 to 241	CCn1c(=O)[nH]c2ncccc2c1=O
235 to 236	COc1cccc(C2=Nc3ccc(N4CCOCC4)cc3C(=O)C2)c1OC
184 to 185	C=CCN(C(=O)C(C#N)=CNC(=N)N1CC(C)(C)NC1=O)c1cccc(C(F)(F)F)c1
175 to 176	Cc1cccc2c1nc(-c1ccc3ccccc3c1)n2Cc1c(F)cccc1F
94 to 97	COc1ccc(OC(=O)CN2CCN(Cc3cc(OC)c(OC)c(OC)c3)CC2)cc1
95 to 96	CC(=O)NC(=CC(=O)[C@H](Cc1ccccc1)N(Cc1ccccc1)Cc1ccccc1)Cc1ccccc1
176 to 178	C=CCN1C(=O)C2CC(c3ccc(N)cc3)(C2)C1=O
146 to 148	Cc1cccc(-c2[nH]c(C(C)C)nc2-c2cccc(-c3ccc(NC(=O)NN4CCOCC4)cc3)c2)n1
100 to 102	CCN(CC)C(=O)C(C)(C)Oc1ccc(-c2ccc(N3CCCCC3)cc2)cc1
298 to 300	O=c1[nH]c(=S)n2c3c1cnn3C(c1cccc(F)c1)=CC2
179 to 181	Cc1ccc(C(=S)c2cc(Cl)cc3c2NC(=O)C3)cc1
173 to 175	Cc1ccc(Cc2cnc(NCCCNc3ccc(Cl)cn3)[nH]c2=O)cn1
87 to 90	COC(=O)c1cccc(CCN(C)CCCC(C(=O)OC)(c2ccc(OC)c(OC)c2)C(C)C)c1 (configuration not stated)
162 to 165	CCc1oc2ccccc2c1C(=O)NCc1ccc2c(Br)c(OC(Cc3ccccc3)C(=O)O)ccc2c1 (configuration not stated)

melting point [°C]	SMILES
150 to 151	CC(C)n1nc(-c2c(-c3ccccc3)nn3ccc(OCc4ccccn4)cc23)ccc1=O
112 to 113	COc1ccc(C=C(C)c2cc(OC)sc2C)cc1
144	Cc1ccc(N=c2sc3ncccc3c(=O)n2C)cc1
220	O=c1[nH]c2c(n1-c1ccccc1)CCCC2
90 to 91	Cc1cc(OCc2ccccc2)cc(=O)o1
87.5 to 88	CNC(=S)N(C)c1ccc(Cl)nc1
46 to 49	c1ccc(CCOCCOc2ccc(OCc3ccccc3)cc2)cc1
165 to 166	OCC1(Oc2ccc3c(c2)c(-c2cc4cccnc4[nH]2)cn3C2(CO)CCC2)CCC1
78 to 82	CNC(=O)CN(CCN(CCN(CC(=O)O)CC(=O)NC)CC(=O)O)CC(=O)O
169 to 171	Cn1nnnc1C=C(c1ccc(F)cc1)c1ccc(F)cc1
76 to 77	CC(=O)c1ccc(C2=CC3CCCC3C2=O)cc1 (configuration not stated)
106 to 108	Cc1nc(C(=O)NCCO[N+](=O)[O-])co1
178 to 180	COC(=O)C12C3C4(C(=O)OC)C1C1(C(=O)OC)C2C3(C(=O)OC)C41Cl (configuration not stated)
134 to 136	c1ccn(Nc2ccncn2)c1
107 to 109	C/C(=C\c1ccc(OCCN2CCOCC2)cc1)c1ccc2c(c1)C(C)(C)CCC2(C)C
133 to 134	Cc1c(C)c2c(c(C)c1NC(=O)NCCN(C)C)C(c1ccc(C(C)C)cc1)CO2 (configuration not stated)
226 to 227	CNC(C)=Nc1ccc(-c2c[nH]cn2)cc1
65	CC(C)C(=O)N(Cc1ccccc1)c1nnn(C)n1
161 to 163	OCN1CCN=C1CC(c1ccccc1)c1ccccc1
192 to 194	CC(=O)n1ccc(-c2ccc(C(=O)N3Cc4cccn4Cc4ccccc43)cc2)n1
201 to 202	Nc1ccc(Oc2ccc3c(c2)OCC(=O)N3)cc1
254 to 256	Cc1nc(N)c2nc(CO)n(NC3CCCC3)c2c1C
89 to 90	N#Cc1ncc(Cl)nc1C#N
154	Cc1oc(-c2ccccc2)nc1CCOc1ccc(C=O)c2sccc12

melting point [°C]	SMILES
70 to 72	COC(=O)C(Cc1ccccc1)Oc1c(Br)cc(-c2ccc(-c3nc(-c4ccc(C(F)(F)F)cc4)oc3C)cc2)cc1Br (configuration not stated)
81	COc1cc(OC)nc(Oc2ccccc2C=O)n1
168 to 169	Cc1cc(C)c2c(c1C)OC(=O)C2c1ccc(Br)cc1 (configuration not stated)
125 to 126	CCOC(=O)[C@H](Cc1ccc(-c2c(OC)cc(COS(C)(=O)=O)cc2OC)cc1)NC(=O)c1c(F)cccc1F
116 to 118	CCCC(CCC)n1c(CC)nc2c1C(=O)N(C)C(CC)N2c1ccc(Cl)cc1Cl (configuration not stated)
114 to 116	CC(=O)Nc1cc(Br)sc1Br
98 to 100	CC(=O)NC[C@H]1CN(c2ccc(N3CCC(=C(C#N)Cc4ccccc4)CC3)c(F)c2)C(=O)O1
100 to 101	OCc1c(Cl)cc(Cl)cc1Cl
173 to 175	O=C1Cc2ccccc2SN(CCO)C1
69 to 72	CCC(=CC(COC(N)=O)=NO)C(C)[N+](=O)[O-] (configuration not stated)
175 to 177	CCN1C(=O)c2cscc2Nc2ccccc21
152 to 156	COc1ccc(Cn2c(C)cc3cnnc(OCc4ccccc4)c32)cc1
73 to 74	Cc1noc(CC(=O)Oc2ccc(Br)cc2)n1
81 to 82	CCC(CC)c1nn(-c2ccc(C(F)(F)F)nn2)cc1CCCOc1c(CC(=O)O)cccc1OC
70 to 74	COc1ccc(CSC#N)cc1OCc1ccccc1
231 to 233	CCCc1nc2c(N)nc3ccccc3c2n1CC1(O)CCOCC1
225	Cc1cc(C(O)=S)cc(N)c1Cl
191 to 193	C#CCOc1ccc2c(C)cc(=O)oc2c1C(=O)C=Cc1cc(OC)c(OC)c(OC)c1
210	COC(=O)[C@@H]1C[C@H](C(=O)O)Nc2cc(Cl)c(Cl)c(Cl)c21 (relative stereo)
94	O=C(O)CCCCCCCCCCSSCCCCCCCCCCC(=O)O
120 to 125	Cc1cn2cccc(OCc3c(Cl)ccc(S(=O)(=O)N4CCC[C@H]4C(=O)NCCCNC(=O)c4ccc(C=NN)cc4)c3Cl)c2n1
101	COCCOc1ccc(CCC(=O)N(CCOC)S(N)(=O)=O)c(Oc2ncc(C(F)(F)F)cc2Cl)c1
71.1 to 72.6	O=C(c1ccc(F)cc1)c1cc(Cl)nnc1Cl
112 to 113	C#CCOc1ccc2c(c1)c(-c1ccc(C3CC3)cc1)nc(=O)n2Cc1ccccc1

SMILES	melting point [°C]
Cc1cc(C)cc(C(=O)P2(=O)Oc3ccccc3-c3ccccc32)c1 (configuration not stated)	120 to 124
CCC(=O)O[C@H]1C[C@@H](C(=O)OC)[C@]2(C)CC[C@H]3C(=O)O[C@H](c4ccoc4)C[C@]3(C)[C@H]2C1=O	217 to 221
N#Cc1nn(-c2c(Cl)cc(C(F)(F)F)cc2Cl)c(N)c1S(=O)(=O)c1ccc(Cl)cc1	90 to 95
CN(C)Cc1c[nH]c2cc(Cl)ccc12	130 to 133
CC(=O)N1CC(CCN2CC=C(c3ccccc3)CC2)c2ccccc21 (configuration not stated)	109 to 111
CCC1N=C(c2ccccc2Cl)c2cc(CC(=O)OC)sc2NC1=S (configuration not stated)	199 to 200
